Test results published in PMC12457209, “Jianpi‐Huogu Prescription Repairs Nontraumatic Osteonecrosis of the Femoral Head by Inhibiting NAMPT/STK11/HMGCR/ACAT1 Axis‐Mediated Lipid Production” (Journal of Cellular and Molecular Medicine, 2025).

target: T1, NMNAT1 (Nicotinamide Nucleotide Adenylyl Transferase 1) (Homo sapiens, UniProt Q9HAN9); assay: SPR, Biacore T200, immobilised protein; type: binding; details: PBS, 5% DMSO, 0.5% P20, pH 7.4; compound 1.56 to 50 μM
T1 construct: amine-coupled to CM5 chip
T1 sequence (Q9HAN9 whole entry): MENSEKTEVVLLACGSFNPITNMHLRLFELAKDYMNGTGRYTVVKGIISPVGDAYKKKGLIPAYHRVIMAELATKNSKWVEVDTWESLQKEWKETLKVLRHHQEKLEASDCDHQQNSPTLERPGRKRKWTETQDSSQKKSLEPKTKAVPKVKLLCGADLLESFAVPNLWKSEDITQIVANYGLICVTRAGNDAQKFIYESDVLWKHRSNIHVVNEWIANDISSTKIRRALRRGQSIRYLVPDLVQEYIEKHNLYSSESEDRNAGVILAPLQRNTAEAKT

SMILES | SPR, Biacore T200, immobilised protein
COc1cc(-c2cc(=O)c3c(O)c(O)c(OC)cc3o2)ccc1O [5,6,4′‐trihydroxy‐7,3′‐dimethoxyflavone] | SPR analysis confirmed direct and specific binding of these compounds to NMNAT1
COc1cc(/C=C/C(=O)O)ccc1O [ferulic acid] | SPR analysis confirmed direct and specific binding of these compounds to NMNAT1
Nc1nc2c(ncn2[C@@H]2O[C@H](CO)[C@@H](O)[C@H]2O)c(=O)[nH]1 [guanosine] | SPR analysis confirmed direct and specific binding of these compounds to NMNAT1
CCC/C=C1\OC(=O)C2=C1CC[C@@H](O)[C@H]2O [senkyunolide H] | SPR analysis confirmed direct and specific binding of these compounds to NMNAT1
